Data as given in patent publication EP4755875A1, “PHTHALAZINONE COMPOUND AND PREPARATION METHOD THEREFOR, PHARMACEUTICAL COMPOSITION, AND USE” (Beijing Wehand-Bio Pharmaceutical Co., Ltd, priority 2023, dated 2025).

How the values were obtained:
[1] = tested on: PC-12 cells; assay: In vitro neuroprotective activity, hydrogen peroxide injury model (CCK-8 viability); format: cell-based; settings: Rattus norvegicus; compound 10 µM; PC-12 cells injured with hydrogen peroxide (120 µM) for 2 h; 24-hour incubation; relative to model group; read-out: Improved Viability (%)
Method: (§1) The in vitro neuroprotective models for evaluating the test compound were hydrogen peroxide injury and glutamate injury models. The PC-12 cells were seeded in a 96-well plate at a density of 1.5 × 10^4 cells/mL, 100 µL per well. The experiment included a blank group, a model group, and drug treatment groups. The hydrogen peroxide injury and glutamate injury models were stimulated for 2 h with a final concentration of 120 µM hydrogen peroxide or 8 mM glutamate, respectively. Subsequently, the cells in the blank group were cultured in complete medium, whereas the cells in the drug treatment groups were cultured by adding 10 µM test compound. After 24-hour incubation for all groups, 10 µL of CCK-8 was added to each well. 60 min later, the absorbance at 490 nm was measured using a microplate reader. The viability was calculated. Improved Viability = (Viability in Drug Treatment Group - Viability in Model Group)/(Viability in Model Group). Table 1 Protective Effects of Phthalazinone Compounds on Nerve Cell Injury Induced by Hydrogen Peroxide (120 µM)

[2] = tested on: PC-12 cells; assay: In vitro neuroprotective activity, glutamate injury model (CCK-8 viability); format: cell-based; settings: Rattus norvegicus; compound 10 µM; PC-12 cells injured with glutamate (8 mM) for 2 h; 24-hour incubation; relative to model group; read-out: Improved Viability (%)
Method: as §1

[3] = tested on: rats with ischemic stroke; assay: In vivo anti-ischemic stroke activity, middle cerebral artery occlusion model; design: species or system SD rats

SMILES | activation at 10 µM [1] [%] | activation at 10 µM [2] [%] | other results
CCCCc1nn(CC)c(=O)c2c(OCC3CCCCC3)cccc12 [Compound 7, 2-Ethyl-4-butyl-8-(cyclohexylmethoxy)-phthalazin-1(2H)-one] | 0.81 ± 0.37 | – | –
CCCCc1nn(CC2CC2)c(=O)c2c(OC)cccc12 [Compound 4, 2-(Cyclopropylmethyl)-4-butyl-8-methoxy-phthalazin-1(2H)-one] | 23.4 ± 1.83 | 9.75 ± 3.22 | –
CCCCc1nn(Cc2ccc3ccccc3c2)c(=O)c2c(OCCC)cccc12 [Compound 15, 2-(Naphthylmethyl)-4-butyl-8-propoxy-phthalazin-1(2H)-one] | 1.59 ± 1.13 | – | –
CCCCc1nn(CC2CCCCC2)c(=O)c2c(OC)cccc12 [Compound 5] | 61.9 ± 6.53 | 14 ± 6.21 | –
CCCCc1nn(Cc2ccncc2)c(=O)c2c(OCCC)cccc12 [Compound 10, 2-(Pyridin-4-methylene)-4-butyl-8-propoxy-phthalazin-1(2H)-one] | 1.93 ± 2.37 | – | –
CCCCc1n[nH]c(=O)c2c(OCCC)cccc12 [Compound 9, 4-Butyl-8-propoxy-phthalazin-1(2H)-one] | 60.2 ± 5.87 | 7.48 ± 3.07 | –
CCCCc1nn(Cc2ccc(F)cc2)c(=O)c2c(OCCC)cccc12 [Compound 11, 2-(4-Fluorobenzyl)-4-butyl-8-propoxy-phthalazin-1(2H)-one] | 96.8 ± 8.64 | 32.7 ± 6.21 | –
CCCCc1nn(CC2CC2)c(=O)c2c(OCCC)cccc12 [Compound 13, 2-(Cyclopropylmethyl)-4-butyl-8-propoxy-phthalazin-1(2H)-one] | 3.14 ± 1.45 | 47.8 ± 8.14 | –
CCCCc1nn(CC)c(=O)c2c(OCc3ccc4ccccc4c3)cccc12 [Compound 20, 2-Ethyl-4-butyl-8-(naphthalene-2-methoxy)-phthalazin-1(2H)-one] | 34 ± 3.92 | 8.77 ± 3.01 | –
CCCCc1nn(CC)c(=O)c2c(OC)cccc12 [Compound 2, 2-Ethyl-4-butyl-8-methoxy-phthalazin-1(2H)-one] | 35.8 ± 3.55 | 0.04 ± 1.05 | –
CCCCc1nn(CC2CCCCC2)c(=O)c2c(OCCC)cccc12 [Compound 14, 2-(Cyclohexylmethyl)-4-butyl-8-propoxy-phthalazin-1(2H)-one] | 6.68 ± 3.51 | 3.16 ± 3.54 | –
CC1=NN(c2ccccc2)C(=O)C1 [Edaravone, reference compound] | 11.3 ± 2.15 | 3.14 ± 0.85 | –
CCCCc1nn(Cc2ccccc2)c(=O)c2c(OCC3CCCCC3)cccc12 [Compound 8, 2-Benzyl-4-butyl-8-(cyclohexylmethoxy)-phthalazin-1(2H)-one] | 12.1 ± 3.25 | 7.99 ± 2.98 | –
CCCCc1nn(CCC)c(=O)c2c(OCCC)cccc12 [Compound 12, 2-Propyl-4-butyl-8-propoxy-phthalazin-1(2H)-one] | 12.9 ± 6.03 | 5.11 ± 2.33 | –
CCCCc1nn(Cc2ccc(F)cc2)c(=O)c2c(OCC3CC3)cccc12 [Compound 17, 2-(4-Fluorobenzyl)-4-butyl-8-(cyclopropylmethoxy)-phthalazin-1(2H)-one] | 33 ± 2.37 | 12.2 ± 2.57 | survival rate of rats with ischemia-reperfusion injury ([3]; intragastric 10, 30 and 60 mg/kg, once daily for 7 days, FIG. 1): effectively increase; body weight of rats ([3]; intragastric 10, 30 and 60 mg/kg, once daily for 7 days, FIG. 2): reverse the decrease trend; volume of cerebral infarction ([3]; intragastric 10, 30 and 60 mg/kg, once daily for 7 days, TTC staining, FIG. 3): reduce the volume of cerebral infarction in a dose-dependent manner; effects compared with positive control drug butylphthalide (200 mg/kg) ([3]; survival rate, body weight, infarction volume, Compound 17 at 10, 30, 60 mg/kg by gavage): superior
